Data: PubChem BioAssay AID1963875 (Molecular Pharmacology Branch, DTP, NCI, 2024)

System: KRAS-mutant PDC complex spheroid viability
Experiment: Anticancer human tumor 186277-243-T-J2-PDC patient-derived colon adenocarcinoma cell line growth inhibition [KRAS2]
Conditions: for IC50: curve of first compound; for viability, T/C: stronger effect = lower value
In short: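 KRAS-mutant tumor cells were grown as spheroids with HUVEC endothelial cells and human MSCs as stroma. Targeted agents were tested alone and with KRAS pathway inhibitors. Doses started at or near clinical Cmax, or 10 microM, descending half-log.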

[1] = second compound 0.1 µM, first compound 0.000316 µM
[2] = second compound 0.1 µM, first compound 0.001 µM
[3] = second compound 0.1 µM, first compound 0.00316 µM
[4] = second compound 0.1 µM, first compound 0.01 µM
[5] = second compound 0.1 µM, first compound 0.0316 µM
[6] = second compound 0.1 µM, first compound 0.1 µM
[7] = second compound 0.316 µM, first compound 0.000316 µM
[8] = second compound 0.316 µM, first compound 0.001 µM
[9] = second compound 0.316 µM, first compound 0.00316 µM
[10] = second compound 0.316 µM, first compound 0.01 µM
[11] = second compound 0.316 µM, first compound 0.0316 µM
[12] = second compound 0.316 µM, first compound 0.1 µM
[13] = second compound 1 µM, first compound 0.000316 µM
[14] = second compound 1 µM, first compound 0.001 µM
[15] = second compound 1 µM, first compound 0.00316 µM
[16] = second compound 1 µM, first compound 0.01 µM
[17] = second compound 1 µM, first compound 0.0316 µM
[18] = second compound 1 µM, first compound 0.1 µM
[19] = second compound 3.16 µM, first compound 0.000316 µM
[20] = second compound 3.16 µM, first compound 0.001 µM
[21] = second compound 3.16 µM, first compound 0.00316 µM
[22] = second compound 3.16 µM, first compound 0.01 µM
[23] = second compound 3.16 µM, first compound 0.0316 µM
[24] = second compound 3.16 µM, first compound 0.1 µM
[25] = second compound 10 µM, first compound 0.000316 µM
[26] = second compound 10 µM, first compound 0.001 µM
[27] = second compound 10 µM, first compound 0.00316 µM
[28] = second compound 10 µM, first compound 0.01 µM
[29] = second compound 10 µM, first compound 0.0316 µM
[30] = second compound 10 µM, first compound 0.1 µM
[31] = second compound 0.1 µM, first compound 0.316 µM
[32] = second compound 0.1 µM, first compound 1 µM
[33] = second compound 0.1 µM, first compound 3.16 µM
[34] = second compound 0.1 µM, first compound 10 µM
[35] = second compound 0.316 µM, first compound 0.316 µM
[36] = second compound 0.316 µM, first compound 1 µM
[37] = second compound 0.316 µM, first compound 3.16 µM
[38] = second compound 0.316 µM, first compound 10 µM
[39] = second compound 1 µM, first compound 0.316 µM
[40] = second compound 1 µM, first compound 1 µM
[41] = second compound 1 µM, first compound 3.16 µM
[42] = second compound 1 µM, first compound 10 µM
[43] = second compound 3.16 µM, first compound 0.316 µM
[44] = second compound 3.16 µM, first compound 1 µM
[45] = second compound 3.16 µM, first compound 3.16 µM
[46] = second compound 3.16 µM, first compound 10 µM
[47] = second compound 10 µM, first compound 0.316 µM
[48] = second compound 10 µM, first compound 1 µM
[49] = second compound 10 µM, first compound 3.16 µM
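For viability, T/C in this document: viability read after seven days of compound exposure; 100% = DMSO vehicle-treated spheroids so lower means less viable.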

With `Cn1ncnc1[C@H]1c2n[nH]c(=O)c3cc(F)cc(c23)N[C@@H]1c1ccc(F)cc1` + CC1OCC2(CCN(c3cnc(Sc4ccnc(N)c4Cl)c(N)n3)CC2)C1N the IC50 (second compound 0.1 µM) was over 100 nM, the IC50 (second compound 0.316 µM) was over 100 nM and the IC50 (second compound 1 µM) was 89.2 nM. For the same compound, the IC50 (second compound 3.16 µM) was 18.7 nM, the IC50 (second compound 10 µM) was 4.16 nM and the viability, T/C [1] was 107%. The viability, T/C [2] was 116%, the viability, T/C [3] was 110% and the viability, T/C [4] was 90.5%. The viability, T/C [5] was 84.2%, the viability, T/C [6] was 62.3% and the viability, T/C [7] was 126%. For the same compound, the viability, T/C [8] was 120%, the viability, T/C [9] was 104% and the viability, T/C [10] was 84.3%. The viability, T/C [11] was 76.8%, the viability, T/C [12] was 58.1% and the viability, T/C [13] was 119%. The viability, T/C [14] was 103%, the viability, T/C [15] was 89.4% and the viability, T/C [16] was 71.4%. The viability, T/C [17] was 62.4%, the viability, T/C [18] was 50.6% and the viability, T/C [19] was 81.9%. It also gave a viability, T/C [20] of 85.6%, a viability, T/C [21] of 76.3% and a viability, T/C [22] of 60.2%. For the same compound, the viability, T/C [23] was 41.5%, the viability, T/C [24] was 36% and the viability, T/C [25] was 66.7%. The viability, T/C [26] was 68.4%, the viability, T/C [27] was 49.4% and the viability, T/C [28] was 41.3%. The viability, T/C [29] was 31.5% and the viability, T/C [30] was 25.4%.

In the case of `Cn1nccc1Nc1nccc(-c2cc3c(s2)C(C)(C)N(CCN2CCOCC2)C3=O)n1` + C=CC(=O)N1CCN(c2nc(OCC3CCCN3C)nc3c2CCN(c2cccc4cccc(C)c24)C3)CC1CC#N, the IC50 (second compound 0.0316 µM) is reported as 409 nM, the IC50 (second compound 0.1 µM) is reported as 456 nM and the IC50 (second compound 0.316 µM) is reported as 344 nM. It also gave an IC50 (second compound 1 µM) of 388 nM, an IC50 (second compound 3.16 µM) of under 31.6 nM and a viability, T/C (second compound 0.0316 µM, first compound 0.0316 µM) of 111%. For the same compound, the viability, T/C (second compound 0.0316 µM, first compound 0.1 µM) was 96.7%, the viability, T/C (second compound 0.0316 µM, first compound 0.316 µM) was 63% and the viability, T/C (second compound 0.0316 µM, first compound 1 µM) was 5.23%. For the same compound, the viability, T/C (second compound 0.0316 µM, first compound 3.16 µM) was 6.25%, the viability, T/C (second compound 0.0316 µM, first compound 10 µM) was 6.65% and the viability, T/C [5] was 105%. It also gave a viability, T/C [6] of 104%, a viability, T/C [31] of 70.2% and a viability, T/C [32] of 5.12%. For the same compound, the viability, T/C [33] was 9.32%, the viability, T/C [34] was 6.37% and the viability, T/C [11] was 101%. It also gave a viability, T/C [12] of 97.1%, a viability, T/C [35] of 51.8% and a viability, T/C [36] of 15.8%. The viability, T/C [37] was 5.05%, the viability, T/C [38] was 7.23% and the viability, T/C [17] was 91%. It also gave a viability, T/C [18] of 88.6%, a viability, T/C [39] of 59.1% and a viability, T/C [40] of 8.02%. For the same compound, the viability, T/C [41] was 4.02%, the viability, T/C [42] was 4.26% and the viability, T/C [23] was 10.1%. It also gave a viability, T/C [24] of 1.3%, a viability, T/C [43] of 0.45% and a viability, T/C [44] of 0.51%. It also gave a viability, T/C [45] of 0.15% and a viability, T/C [46] of 0.16%.

With `COC(=O)c1ccc2c(C(=Nc3ccc(N(C)C(=O)CN4CCN(C)CC4)cc3)c3ccccc3)c(O)[nH]c2c1` + COc1cc2nc(C)nc(NC(C)c3cc(N)cc(C(F)(F)F)c3)c2cc1OC1CCOC1 the IC50 (second compound 0.1 µM) was 2190 nM, the IC50 (second compound 0.316 µM) was 2210 nM and the IC50 (second compound 1 µM) was 1970 nM. The IC50 (second compound 3.16 µM) was 1450 nM, the IC50 (second compound 10 µM) was 463 nM and the viability, T/C [5] was 99%. For the same compound, the viability, T/C [6] was 108%, the viability, T/C [31] was 106% and the viability, T/C [32] was 119%. It also gave a viability, T/C [33] of 22.8%, a viability, T/C [34] of 13.4% and a viability, T/C [11] of 87.2%. The viability, T/C [12] was 102%, the viability, T/C [35] was 100% and the viability, T/C [36] was 104%. It also gave a viability, T/C [37] of 28.3%, a viability, T/C [38] of 10.9% and a viability, T/C [17] of 95.6%. It also gave a viability, T/C [18] of 98.6%, a viability, T/C [39] of 106% and a viability, T/C [40] of 115%. The viability, T/C [41] was 12.7%, the viability, T/C [42] was 8.29% and the viability, T/C [23] was 96.6%. The viability, T/C [24] was 94%, the viability, T/C [43] was 114% and the viability, T/C [44] was 72%. It also gave a viability, T/C [45] of 5.65%, a viability, T/C [46] of 0.14% and a viability, T/C [29] of 74.5%. It also gave a viability, T/C [30] of 81.5%, a viability, T/C [47] of 62.8% and a viability, T/C [48] of 22.1%. It also gave a viability, T/C [49] of 0.18% and a viability, T/C (second compound 10 µM, first compound 10 µM) of 0.19%.

`CC(=O)OC12COC1CC(O)C1(C)C(=O)C(O)C3=C(C)C(OC(=O)C(O)C(NC(=O)OC(C)(C)C)c4ccccc4)CC(O)(C(OC(=O)c4ccccc4)C21)C3(C)C` (stereo not given) + CNCc1ccccc1-c1csc(C(C)Nc2nc(C)nc3cc(OC)c(OC)cc23)c1 was tested, and the IC50 (second compound 0.1 µM) was under 10 nM, the IC50 (second compound 0.316 µM) was under 10 nM and the IC50 (second compound 1 µM) was under 10 nM. The IC50 (second compound 3.16 µM) was under 10 nM, the IC50 (second compound 10 µM) was under 10 nM and the viability, T/C [4] was 4.85%. The viability, T/C [5] was 2.89%, the viability, T/C [6] was 2.72% and the viability, T/C [31] was 2.61%. For the same compound, the viability, T/C [32] was 2.94%, the viability, T/C [33] was 3.13% and the viability, T/C [10] was 4.19%. The viability, T/C [11] was 2.44%, the viability, T/C [12] was 2.68% and the viability, T/C [35] was 2.5%. For the same compound, the viability, T/C [36] was 2.71%, the viability, T/C [37] was 3.02% and the viability, T/C [16] was 4.69%. For the same compound, the viability, T/C [17] was 3.7%, the viability, T/C [18] was 3.39% and the viability, T/C [39] was 3.25%. It also gave a viability, T/C [40] of 3.43%, a viability, T/C [41] of 3.79% and a viability, T/C [22] of 6.31%. For the same compound, the viability, T/C [23] was 0.05%, the viability, T/C [24] was 0.02% and the viability, T/C [43] was 0.03%. For the same compound, the viability, T/C [44] was 0.05%, the viability, T/C [45] was 3% and the viability, T/C [28] was 0.13%. It also gave a viability, T/C [29] of 0.1%, a viability, T/C [30] of 0.08% and a viability, T/C [47] of 0.33%. It also gave a viability, T/C [48] of 3.35% and a viability, T/C [49] of 0.58%.

In the case of `CC(C)n1nc(-c2ccc3oc(N)nc3c2)c2c(N)ncnc21` + C=CC(=O)N1CCN(c2nc(=O)n(-c3c(C)ccnc3C(C)C)c3nc(-c4c(O)cccc4F)c(F)cc23)C(C)C1, the IC50 (second compound 0.1 µM) is reported as 12.6 nM, the IC50 (second compound 0.316 µM) is reported as 17.6 nM and the IC50 (second compound 1 µM) is reported as 9.05 nM. The IC50 (second compound 3.16 µM) was 4.66 nM, the IC50 (second compound 10 µM) was under 0.316 nM and the viability, T/C [1] was 94.8%. The viability, T/C [2] was 93.1%, the viability, T/C [3] was 86.1% and the viability, T/C [4] was 52.6%. For the same compound, the viability, T/C [5] was 32.7%, the viability, T/C [6] was 19.5% and the viability, T/C [7] was 113%. It also gave a viability, T/C [8] of 103%, a viability, T/C [9] of 87.7% and a viability, T/C [10] of 65.6%. For the same compound, the viability, T/C [11] was 34.2%, the viability, T/C [12] was 18.9% and the viability, T/C [13] was 97.5%. It also gave a viability, T/C [14] of 107%, a viability, T/C [15] of 75.8% and a viability, T/C [16] of 48.9%. For the same compound, the viability, T/C [17] was 27.3%, the viability, T/C [18] was 20.1% and the viability, T/C [19] was 98%. For the same compound, the viability, T/C [20] was 89.4%, the viability, T/C [21] was 58.6% and the viability, T/C [22] was 31.1%. It also gave a viability, T/C [23] of 20.1%, a viability, T/C [24] of 13.9% and a viability, T/C [25] of 45.9%. For the same compound, the viability, T/C [26] was 44.6%, the viability, T/C [27] was 34.7% and the viability, T/C [28] was 16.9%. For the same compound, the viability, T/C [29] was 14.7% and the viability, T/C [30] was 7.97%.
